Measured values taken from patent US20220332700A1, “NOVEL APOPTOSIS SIGNAL-REGULATING KINASE 1 INHIBITORS” (MANKIND PHARMA LTD, priority 2019, published 2022).
Where two headings read alike, the source gives them in different places.

Legend:
ASK2 = target: T1, ASK2 (Homo sapiens, UniProt O95382); assay: ASK2 biochemical assay (selectivity assay); details: ATP 100 μM
T1 construct: purchased Carna Biosciences
T1 sequence (O95382 1-1288): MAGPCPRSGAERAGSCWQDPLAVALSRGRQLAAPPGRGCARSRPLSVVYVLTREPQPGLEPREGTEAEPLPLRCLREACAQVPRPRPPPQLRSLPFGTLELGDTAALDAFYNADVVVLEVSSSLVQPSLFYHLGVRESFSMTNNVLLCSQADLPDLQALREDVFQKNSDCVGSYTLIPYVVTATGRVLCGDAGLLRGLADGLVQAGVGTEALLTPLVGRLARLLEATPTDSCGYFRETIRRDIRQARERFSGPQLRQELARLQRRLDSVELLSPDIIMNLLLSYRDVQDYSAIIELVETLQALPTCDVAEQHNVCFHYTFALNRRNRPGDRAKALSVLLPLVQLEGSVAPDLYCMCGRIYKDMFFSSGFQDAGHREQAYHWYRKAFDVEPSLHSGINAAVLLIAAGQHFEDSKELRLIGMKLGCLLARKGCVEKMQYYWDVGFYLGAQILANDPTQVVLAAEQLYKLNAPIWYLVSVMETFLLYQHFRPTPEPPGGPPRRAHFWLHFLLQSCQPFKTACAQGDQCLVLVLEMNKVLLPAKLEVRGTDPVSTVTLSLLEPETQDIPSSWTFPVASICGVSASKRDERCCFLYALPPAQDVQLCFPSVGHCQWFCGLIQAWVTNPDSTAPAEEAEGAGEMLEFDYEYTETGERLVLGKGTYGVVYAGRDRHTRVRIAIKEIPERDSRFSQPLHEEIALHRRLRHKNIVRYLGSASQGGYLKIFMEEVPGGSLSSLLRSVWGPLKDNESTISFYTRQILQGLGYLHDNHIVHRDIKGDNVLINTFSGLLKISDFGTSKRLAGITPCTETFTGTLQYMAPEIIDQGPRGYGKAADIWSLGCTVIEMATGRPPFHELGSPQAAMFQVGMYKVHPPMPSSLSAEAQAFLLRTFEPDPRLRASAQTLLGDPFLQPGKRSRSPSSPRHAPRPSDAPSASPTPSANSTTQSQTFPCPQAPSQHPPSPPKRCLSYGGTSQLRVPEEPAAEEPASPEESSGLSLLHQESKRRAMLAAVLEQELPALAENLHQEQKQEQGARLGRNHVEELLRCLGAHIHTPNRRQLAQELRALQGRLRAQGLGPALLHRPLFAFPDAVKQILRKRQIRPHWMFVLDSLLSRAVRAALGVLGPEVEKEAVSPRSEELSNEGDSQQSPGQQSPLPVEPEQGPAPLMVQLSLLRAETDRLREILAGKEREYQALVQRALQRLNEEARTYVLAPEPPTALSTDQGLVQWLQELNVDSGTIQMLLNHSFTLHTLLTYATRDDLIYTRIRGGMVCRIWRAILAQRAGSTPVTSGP
Procedure: ASK2 assay was performed to evaluate above mentioned example for its selectivity towards ASK1 with respect ASK 2.
ASK2 biochemical assay was standardized using ASK2 (Carna Biosciences), MBP biotin conjugate (Merk life science), ATP, streptavidin surelight APC (PerkinElmer) and Lance Eu-W1024-antiphospho threonine (PerkinElmer). Enzyme concentration, ATP, MBP biotin conjugate and antibodies were titrated for enzyme assay. Assay was carried out in freshly prepared ASK2 kinase buffer, 5 mM MOPS pH-7.2, 2.5 mM β-glycerophosphate, 5 mM magnesium chloride (MgCl2), 1 mM EGTA, 0.4 mM EDTA, 0.05 mM DTT and 0.05% BSA. DMSO was used as vehicle control with a final concentration of 1%. A 40 ng of ASK2 enzyme was incubated with compound for 1 hour at 23° C. on a shaker at 100rpm. ATP and MBP biotin conjugate (as substrate) was added at a final concentration of 100 μM and 0.1mg/ml respectively and incubated for 3 hours at 23° C. on a shaker at 100rpm. Detection reagents streptavidin surelight APC (55.56nM), lance Eu-W1024-antiphospho threonine antibody (1.11nM) and 1X lance detection buffer were added and incubated for 2 hour at room temperature on a shaker at 100rpm. Delta F ratios were calculated from data obtained at excitation (337 nm) and emission wavelengths (665 nm and 620-10 nm). Substrate blank values were considered as negative control. Values from negative control were subtracted from vehicle control and compound treated wells. Enzyme inhibition by compounds was calculated from vehicle controls, which represent uninterrupted enzyme's activity.

Male C57BL/6 mice = assay: Mouse model of Acetaminophen (APAP) induced Hepatotoxicity; type: in vivo; details: l0mpk and 30mpk; APAP 300 mg/kg i.p.; 6h post APAP; dose dependent, comparable with selonsertib
Procedure: Male C57BL/6 mice, 20 to 24 grams body weight at the time of study initiation, were acclimatized at least for 1-3 days prior to experiment initiation. Based on body weight, animal were randomized to different groups and kept for overnight fasting. Animals were treated with test compounds and vehicle for control group. After 30 minutes, APAP (300 mg/kg) was administered by intraperitoneal route (i.p). A vehicle control group was also included in the study as a vehicle control for test compound as well as APAP. All animals were bled 6h post APAP administration from the retro-orbital plexus into appropriately labeled tubes. Serum ALT levels were measured in all groups.

recombinant ASK1 = target: T2, recombinant ASK1 (Homo sapiens, UniProt Q99683); assay: ASK1 Biochemical Assay (HTRF KinEASE-STK S3)
T2 construct: purchased Carna Biosciences
Outline: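 Recombinant ASK1 (5 ng) preincubated with compound 1 h at 23 °C in MOPS pH 7 buffer with Mg-acetate, DTT, NP40, glycerol, BSA and 1% DMSO. Inhibition calculated against vehicle after substrate-blank subtraction.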

[1] = ATP 100 μM, read-out: Biochemical Assay IC50
[2] = comparison with Selonsertib, read-out: ASK1 biochemical Assay (IC50)
[3] = selectivity table, read-out: ASK1 Biochemical Assay IC50

T2 sequence (Q99683 654-971 limits assumed): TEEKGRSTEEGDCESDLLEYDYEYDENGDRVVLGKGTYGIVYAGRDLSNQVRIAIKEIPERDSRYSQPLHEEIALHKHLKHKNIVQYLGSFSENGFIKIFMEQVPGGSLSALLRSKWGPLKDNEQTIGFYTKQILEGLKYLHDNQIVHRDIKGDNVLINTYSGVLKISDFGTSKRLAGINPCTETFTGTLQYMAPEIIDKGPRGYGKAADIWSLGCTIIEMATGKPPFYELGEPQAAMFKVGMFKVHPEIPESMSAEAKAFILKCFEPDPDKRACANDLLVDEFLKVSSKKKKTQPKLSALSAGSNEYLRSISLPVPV

For `CC(C)n1cnnc1-c1cccc(N2CCN(c3ccc(N4CCOCC4)cc3)C2=O)n1` [Example 1043, 1-(6-(4-isopropyl-4H-1,2,4-triazol-3-yl)pyridin-2-yl)-3-(4-morpholinophenyl)imidazolidin-2-one], the IC50 (ASK2) was > 10000 nM, the “reduction in serum ALT levels compared to vehicle” value (from here on “reduction in serum ALT levels”) (Male C57BL/6 mice) was “significant reduction” and the IC50 (recombinant ASK1; [1]) was < 100 nM. For the same compound, the IC50 (recombinant ASK1; [2]) was 4.1 nM and the IC50 (recombinant ASK1; [3]) was 4.1 nM.

For `CC(C)n1cnnc1-c1cccc(N2CCN(c3ccc(N4CC(C#N)C4)cc3)C2=O)n1` [Example 1071, 1-(4-(3-(6-(4-isopropyl-4H-1,2,4-triazol-3-yl)pyridin-2-yl)-2-oxoimidazolidin-1-yl)phenyl)azetidine-3-carbonitrile], the IC50 (ASK2) was > 10000 nM, the “reduction in serum ALT levels” value (Male C57BL/6 mice) was “significant reduction” and the IC50 (recombinant ASK1; [1]) was < 100 nM. For the same compound, the IC50 (recombinant ASK1; [2]) was 3.8 nM and the IC50 (recombinant ASK1; [3]) was 3.8 nM.

`CNC(=O)C1CCN(c2ccc(N3CCN(c4cccc(-c5nncn5C(C)C)n4)C3=O)cc2)CC1` [Example 1082, 1-(4-(3-(6-(4-isopropyl-4H-1,2,4-triazol-3-yl)pyridin-2-yl)-2-oxoimidazolidin-1-yl)phenyl)-N-methylpiperidine-4-carboxamide] was tested, and the IC50 (ASK2) was 8500 nM, the “reduction in serum ALT levels” value (Male C57BL/6 mice) was “significant reduction” and the IC50 (recombinant ASK1; [1]) was < 50 nM. The IC50 (recombinant ASK1; [2]) was 1 nM and the IC50 (recombinant ASK1; [3]) was 1 nM.

With `CC(C)n1cnnc1-c1cccc(N2CCN(c3ccc(N4CCC(C(=O)N(C)C)CC4)cc3)C2=O)n1` [Example 1097, 1-(4-(3-(6-(4-isopropyl-4H-1,2,4-triazol-3-yl)pyridin-2-yl)-2-oxoimidazolidin-1-yl)phenyl)-N,N-dimethylpiperidine-4-carboxamide] the IC50 (ASK2) was 7900 nM, the “reduction in serum ALT levels” value (Male C57BL/6 mice) was “significant reduction” and the IC50 (recombinant ASK1; [1]) was < 50 nM. For the same compound, the IC50 (recombinant ASK1; [2]) was 3.8 nM and the IC50 (recombinant ASK1; [3]) was 3.8 nM.
